According to US12044651B2, “Sensor device and methods” (SCENTIAN BIO LIMITED, priority 2016, dated 2024):

What was measured:
[1] = CNT-FET control, pristine CNT FET and empty nanodisc functionalized CNT FET (Example 2)
Procedure: In order to carry out the electrical measurements the devices were set up with the PDMS well and source, drain and gate electrodes, via micromanipulators and a Rucker and Kolls probe station, as shown in FIG. 9. Before starting the electrical measurements, 100 μl of PBS buffer (containing 1% DMSO) was added into the testing well. The gate electrode is an Ag/AgCl wire (In Vivo Metric) sheathed in plastic where the exposed area at the end of Ag/AgCl was completely inserted into the PBS buffer to avoid any electrical artefacts that are known to occur when changing the active area of the gate electrode. An Agilent 4156C parameter analyser is used for all electrical measurements^20. The parameter analyser has excellent sensitivity and can accurately measure currents on the femto-amp scale.
During transfer (Vlg−Ids) measurements the gate voltage (Vlg) is swept between −500 mV to +1 V and the source drain voltage (Vds) is set as fixed values (50 mV, 100 mV or 200 mV). For our real time sensing measurement the Vlg is set to 0 and Vds is set as fixed values (50 mV, 100 mV or 200 mV, with a time step of 1 s.
The E-2-hexenal ligand solution is diluted from our 100 mM stock solution, to the concentration ranges required for the sensing experiments. […]

Or10a = target: T1, Or10a (Drosophila melanogaster, UniProt Q9VYZ1); assay: EIS sensor, Or10a liposomes on gold electrode (Example 1); assay type: binding; settings: Or10a liposomes, EIS
T1 sequence (Q9VYZ1 1-406): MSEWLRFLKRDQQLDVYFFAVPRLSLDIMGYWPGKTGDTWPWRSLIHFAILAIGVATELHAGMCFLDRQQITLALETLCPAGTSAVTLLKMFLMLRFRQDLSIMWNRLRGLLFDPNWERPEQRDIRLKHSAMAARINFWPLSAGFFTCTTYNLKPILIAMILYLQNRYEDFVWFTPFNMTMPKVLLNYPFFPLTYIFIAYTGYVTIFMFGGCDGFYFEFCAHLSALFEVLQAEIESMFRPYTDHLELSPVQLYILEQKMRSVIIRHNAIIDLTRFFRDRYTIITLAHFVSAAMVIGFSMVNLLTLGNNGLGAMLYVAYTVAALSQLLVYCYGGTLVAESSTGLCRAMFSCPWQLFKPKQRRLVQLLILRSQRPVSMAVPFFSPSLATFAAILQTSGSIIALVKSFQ
Procedure: Liposomes were prepared using a phospholipid solution produced by evaporating solutions containing: phosphatidylethanolamine (PE), phosphatidylserine (PS), phosphatidylcholine (PC), and cholesterol (CH) at a molar ratio of 5:3:3:1 in a small glass tube under a stream of N2 gas, then desiccating under vacuum for 1 h. […] To promote the formation of liposomes, 10 freeze/thaw steps were performed by transferring the tube from liquid nitrogen to a 40° C. water bath. Liposomes were then sized by passing the lipid solution 11 times through a 100-nm polycarbonate membrane using an Avestin LiposoFAST extruder unit (Avestin, Germany). Glycerol was added at 10% of the final volume and aliquots at 10 mg/mL were snap frozen in liquid nitrogen and stored at -80° C. Prior to their use, liposomes were defrosted on ice and then destabilized by incubating with 0.2% CHAPS for 15 min at room temperature. Then 200 μg of purified odorant receptor^14 was added to 1 mg of liposomes and rotated at 10 rpm for 1 h at room temperature. […] The Bio-Beads were removed after each incubation period. The OR integrated liposomes were pelleted by centrifugation at 100,000 g for 1 h, and were resuspended in 500 μL of rehydration buffer. Integration of OrXs into liposomes was assessed by density gradient ultracentrifugation (DGU) using Accudenz (Accurate Chemical & Scientific Corporation, USA). […] The sample was then centrifuged at 100,000 g for 4 h at 4° C. Liposomes will float to the top of the gradient after Accudenz DGU due to their low density. 1.3 Electrode Cleaning Gold disk (2 mm) electrodes were cleaned with polishing with Alumina paste for 2 minutes, ultra-sonicated in pure ethanol and then Milli-Q water for 5 minutes each. […] Charge transfer resistance (Rct) of electrodes were calculated by fitting obtained data to a Randles' equivalent circuit [Rs+CPE/(Rct+W)] comprising of a solution resistance (Rs) in series with a constant phase element (CPE) and in parallel with charge transfer resistance (Rct) and Warburg diffusion element. […]

Compound	real time current response [1]	EC50 (Or10a) [nM]	Sensitivity limit (lowest detectable concentration) (Or10a; signal/noise >3) [pM]
CCC/C=C/C=O [E2-hexenal]	no clear current response		
COC(=O)c1ccccc1O [methyl salicylate]		~1	330
